In the experiment the test system is metastatic melanoma. Put plainly: Clinical course of patient ZH311 after NY-ESO-1 vaccination and Ipilimumab. The format is in vivo. From the text: A patient ZH311 was diagnosed in 2001 with metastatic melanoma. The tumor expressed NY-ESO-1 and was serum-positive for NY-ESO-1.
Survival time after treatment with Ipilimumab was 3 years.

For “Ipilimumab: anti-CTLA4 antagonistic antibody”, where the note is “patient ZH311”, the “survival time after treatment with Ipilimumab” value was found to be 3 years. For the setting “patient ZH311, Ipilimumab starting in 2007 after NY-ESO-1 vaccination”, the course of disease entry was “stabilized course of disease”. The substance also returned an overall survival time (patient ZH311, since diagnosis 2001, NY-ESO-1 vaccination then Ipilimumab, peer group median 10 months) of 10 years.

The values are drawn from US20180353603A1, “Combination therapy including tumor associated antigen binding antibodies” (CT Atlantic Ltd., priority 2011, published 2018).
